Assay results reported in US9237761B2, “Methods and diets for lowering glucose and/or IGF-1 levels” (priority 2013, dated 2016).

How the values were obtained:
4T1 breast cancer = 4T1 breast cancer subcutaneous tumor progression with cisplatin; format: in vivo, BalB/C mice; conditions: three cycles, 12, 8, 8 mg/kg i.v. days 15, 33, 44
Experimental: Murine 4T1 breast cancer and GL26 glioma cells were maintained in DMEM (Invitrogen) supplemented with 10% fetal bovine serum (FBS) at 37° C. under 5% CO2. Cells in log phase growth were washed and suspended in PBS at 2×10^6 cells/mL and injected subcutaneously (s.c., 2×10^5 cells/mouse in 100 μL PBS) in the lower back region of the mouse. Tumor size was measured using a caliper. To mimic multi-cycle treatments in humans, mice were treated intravenously (i.v., lateral tail vein) with Cisplatin (Teva Parenteral Medicines Inc.) three times on days 15, 33 and 44 after tumor inoculation at 12, 8 and 8 mg/kg body weight, respectively. Mice were monitored daily and animals showing signs of severe stress, deteriorating health status or excess tumor load (2000 mm^3) were designated as moribund and euthanized.
The efficacy of STS in augmenting the treatment of various cancers is twofold: it protects against chemotherapy-induced toxicity to normal cells/tissues and sensitizes malignant cells to chemotherapeutic agents. […] To test whether a short-term intermittent 50% CR (ICR) diet could result in similar beneficial effects as the established fasting protocols, murine 4T1 breast cancer cells were implanted subcutaneously into female BalB/C mice and monitored the tumor progression. […]

[1] = 24 mg/kg i.v., mice fed ad lib AIN93G

| SMILES | tumor volume vs untreated mice (4T1 breast cancer) | survival by day 25 post injection [1] |
| --- | --- | --- |
| N.N.[Cl][Pt][Cl] [cisplatin, Cisplatin] | approximately half the size | – |
| COc1cccc2c1C(=O)c1c(O)c3c(c(O)c1C2=O)C[C@@](O)(C(=O)CO)C[C@@H]3O[C@H]1C[C@H](N)[C@H](O)[C@H](C)O1 [DXR, Doxorubicin] | – | 16% |
